Each block holds one compound with its values, some of them ahead of it.
How the values were obtained:
[1] = target: T1, Dihydrofolate reductase (Pneumocystis carinii, UniProt P16184)
T1 sequence (P16184 whole entry): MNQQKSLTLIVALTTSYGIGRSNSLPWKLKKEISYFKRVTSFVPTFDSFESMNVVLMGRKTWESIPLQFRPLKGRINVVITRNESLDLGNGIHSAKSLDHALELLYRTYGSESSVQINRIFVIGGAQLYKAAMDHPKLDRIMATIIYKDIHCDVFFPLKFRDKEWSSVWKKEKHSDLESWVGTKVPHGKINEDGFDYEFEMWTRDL
Description: The ability to inhibit Pneumocystis carinii Dihydrofolate reductase was tested

[2] = target: T2, Bifunctional dihydrofolate reductase-thymidylate synthase (Toxoplasma gondii, UniProt Q07422)
T2 sequence (Q07422 whole entry): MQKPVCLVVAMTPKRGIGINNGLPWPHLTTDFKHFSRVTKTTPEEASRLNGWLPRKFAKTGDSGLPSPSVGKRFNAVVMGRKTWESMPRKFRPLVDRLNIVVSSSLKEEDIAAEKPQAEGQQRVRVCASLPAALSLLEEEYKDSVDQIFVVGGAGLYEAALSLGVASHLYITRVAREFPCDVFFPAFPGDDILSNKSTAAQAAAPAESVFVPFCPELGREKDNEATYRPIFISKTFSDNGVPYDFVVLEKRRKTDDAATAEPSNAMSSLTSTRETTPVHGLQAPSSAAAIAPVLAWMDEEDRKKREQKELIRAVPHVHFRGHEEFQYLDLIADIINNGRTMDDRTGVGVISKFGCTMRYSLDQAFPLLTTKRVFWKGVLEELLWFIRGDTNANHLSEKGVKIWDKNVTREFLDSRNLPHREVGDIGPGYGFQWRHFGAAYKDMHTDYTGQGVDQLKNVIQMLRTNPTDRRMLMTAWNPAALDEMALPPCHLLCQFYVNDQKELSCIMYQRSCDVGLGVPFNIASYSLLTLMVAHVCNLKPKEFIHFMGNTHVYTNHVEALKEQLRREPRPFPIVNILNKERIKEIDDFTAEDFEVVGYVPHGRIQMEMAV
Description: The ability to inhibit Toxoplasma gondii Dihydrofolate reductase was tested

[3] = target: T3, Dihydrofolate reductase (Rattus norvegicus, UniProt Q920D2)
T3 sequence (Q920D2 whole entry): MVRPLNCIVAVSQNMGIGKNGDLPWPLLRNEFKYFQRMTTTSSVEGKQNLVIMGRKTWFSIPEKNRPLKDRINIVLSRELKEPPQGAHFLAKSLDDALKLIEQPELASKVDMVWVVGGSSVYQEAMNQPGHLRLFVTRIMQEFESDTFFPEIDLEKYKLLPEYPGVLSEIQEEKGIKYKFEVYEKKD
Description: The ability to inhibit rat liver Dihydrofolate reductase was tested

[4] = The ability to inhibit [3H]- uracil incorporation by Toxoplasma gondii in cultures of HEL cells was tested; assay type: functional, cell-based, Homo sapiens
[5] = Ratio of the inhibitory concentrations against [3H]-uracil incorporation into nuclear DNA and Toxoplasma gondii (Tg) DHFR; IC50 ([3H]uracil incorporation)/IC50 (Tg); assay type: functional
[6] = tested on: 786-0; assay: Compound was tested for the growth inhibition of 786-0 renal tumor cell line; assay type: functional, cell-based; settings: Homo sapiens
[7] = tested on: A498; assay: Compound was tested for the growth inhibition of A498 renal tumor cell line; assay type: functional, cell-based; settings: Homo sapiens
[8] = tested on: ACHN; assay: Compound was tested for the growth inhibition of ACHN renal tumor cell line; assay type: functional, cell-based; settings: Homo sapiens
[9] = tested on: A549; assay: Compound was tested for the growth inhibition of A549 lung tumor cell line; assay type: functional, cell-based; settings: Homo sapiens
[10] = tested on: BT-549; assay: Compound was tested for the growth inhibition of BT-549 breast carcinoma cell line; assay type: functional, cell-based; settings: Homo sapiens
[11] = tested on: COLO 205; assay: Compound was tested for the growth inhibition of COLO 205 colon tumor cell line; assay type: functional, cell-based; settings: Homo sapiens
[12] = tested on: EKVX; assay: Compound was tested for the growth inhibition of EKVX lung tumor cell line; assay type: functional, cell-based; settings: Homo sapiens
[13] = tested on: HCT-116; assay: Compound was tested for the growth inhibition of HCT116 colon tumor cell line; assay type: functional, cell-based; settings: Homo sapiens
[14] = tested on: IGROV-1; assay: Compound was tested for the growth inhibition of IGROV1 ovarian tumor cell line; assay type: functional, cell-based; settings: Homo sapiens
[15] = tested on: KM12; assay: Compound was tested for the growth inhibition of KM12 colon tumor cell line; assay type: functional, cell-based; settings: Homo sapiens
[16] = tested on: NCI-H460; assay: Compound was tested for the growth inhibition of NCI-H460 lung tumor cell line; assay type: functional, cell-based; settings: Homo sapiens
[17] = tested on: NCI-H226; assay: Compound was tested for the growth inhibition of NCI-H226 lung tumor cell line; assay type: functional, cell-based; settings: Homo sapiens
[18] = tested on: OVCAR-8; assay: Compound was tested for the growth inhibition of OVCAR-8 ovarian tumor cell line; assay type: functional, cell-based; settings: Homo sapiens
[19] = tested on: PC-3; assay: Compound was tested for the growth inhibition of PC3 prostate tumor cell line; assay type: functional, cell-based; settings: Homo sapiens
[20] = tested on: SF-268; assay: Compound was tested for the growth inhibition of SF-268 CNS tumor cell line; assay type: functional, cell-based; settings: Homo sapiens
[21] = tested on: SW-620; assay: Compound was tested for the growth inhibition of SW-620 colon tumor cell line; assay type: functional, cell-based; settings: Homo sapiens
[22] = tested on: SF-295; assay: Compound was tested for the growth inhibition of SF-295 CNS tumor cell line; assay type: functional, cell-based; settings: Homo sapiens
[23] = tested on: SN12C; assay: Compound was tested for the growth inhibition of SN12C renal tumor cell line; assay type: functional, cell-based; settings: Homo sapiens
[24] = tested on: T47D; assay: Compound was tested for the growth inhibition of T-47D breast tumor cell line; assay type: functional, cell-based; settings: Homo sapiens
[25] = tested on: UACC-257; assay: Compound was tested for the growth inhibition of UACC-257 melanoma tumor cell line; assay type: functional, cell-based; settings: Homo sapiens
[26] = tested on: MDA-N; assay: Compound was tested for the growth inhibition of MDA-N breast carcinoma cell line; assay type: functional, cell-based; settings: Homo sapiens
[27] = tested on: LOX IMVI; assay: Compound was tested for the growth inhibition of LOX IMVI melanoma tumor cell line; assay type: functional, cell-based; settings: Homo sapiens
[28] = tested on: OVCAR-3; assay: Compound was tested for the growth inhibition of OVCAR-3 ovarian tumor cell line; assay type: functional, cell-based; settings: Homo sapiens
[29] = tested on: SF-539; assay: Compound was tested for the growth inhibition of SF-539 CNS tumor cell line; assay type: functional, cell-based; settings: Homo sapiens
[30] = tested on: SK-MEL-5; assay: Compound was tested for the growth inhibition of SK-MEL-5 melanoma tumor cell line; assay type: functional, cell-based; settings: Homo sapiens

SMILES: Nc1nc(N)c2c(n1)CCC(Cc1ccsc1)C2 (stereo not given)
IC50 [1]: 1700 nM
IC50 [2]: 49 nM
IC50 [3]: 130 nM

SMILES: CCc1nc(N)nc(N)c1-c1ccc(Cl)cc1 [PYRIMETHAMINE]
IC50 [4]: 670 nM

IC50 [1]: 2200 nM
IC50 [3]: 1900 nM
SMILES: Nc1nc(N)c2c(n1)CCC(c1ccccc1)C2 (stereo not given)
IC50 [2]: 1300 nM

IC50 [1]: 6900 nM
IC50 [3]: 2200 nM
SMILES: COc1cc(CN2CCc3nc(N)nc(N)c3C2)cc(OC)c1OC
IC50 [2]: 200 nM

IC50 [1]: 100 nM
IC50 [3]: 79 nM
SMILES: Nc1nc(N)c2c(n1)CCC(Cc1cccc(OC(F)(F)F)c1)C2 (stereo not given)
IC50 [4]: 130 nM
Ratio [5]: 9.3
IC50 [2]: 14 nM

SMILES: Nc1nc(N)c2c(n1)CCC(Cc1cccs1)C2 (stereo not given)
IC50 [1]: 210 nM
IC50 [2]: 62 nM
IC50 [3]: 80 nM

IC50 [1]: 3300 nM
IC50 [3]: 1400 nM
SMILES: COc1ccc(OC)c(CN2CCc3nc(N)nc(N)c3C2)c1
IC50 [2]: 300 nM

IC50 [1]: 6900 nM
IC50 [3]: 3000 nM
SMILES: CCC1CCc2nc(N)nc(N)c2C1 (stereo not given)
IC50 [2]: 1100 nM

IC50 [1]: 180 nM
IC50 [3]: 65 nM
SMILES: CC(C)(C)C1CCc2nc(N)nc(N)c2C1 (stereo not given)
IC50 [2]: 18 nM

IC50 [1]: 270 nM
IC50 [3]: 110 nM
SMILES: COc1cccc(CC2CCc3nc(N)nc(N)c3C2)c1 (stereo not given)
IC50 [2]: 21 nM

IC50 [1]: 15000 nM
IC50 [3]: 7300 nM
SMILES: Nc1nc(N)c2c(n1)CCC(Cc1ccc(Cl)c(Cl)c1)C2 (stereo not given)
IC50 [2]: 2600 nM

IC50 [6]: 60 nM
IC50 [8]: 240 nM
IC50 [9]: 60 nM
IC50 [10]: 270 nM
IC50 [11]: 3800 nM
IC50 [13]: 40 nM
IC50 [16]: 40 nM
IC50 [17]: 12000 nM
IC50 [18]: 21000 nM
IC50 [19]: 72 nM
IC50 [21]: 990 nM
IC50 [24]: 19000 nM
IC50 [1]: 100 nM
IC50 [3]: 63 nM
SMILES: COc1ccc(CC2CCc3nc(N)nc(N)c3C2)cc1OC (stereo not given)
IC50 [7]: 24000 nM
IC50 [12]: 5700 nM
IC50 [4]: 81 nM
IC50 [14]: 130 nM
IC50 [15]: 1300 nM
IC50 [20]: 300 nM
IC50 [22]: 250 nM
IC50 [23]: 23000 nM
IC50 [25]: 15000 nM
Ratio [5]: 3.5
IC50 [26]: 51 nM
IC50 [27]: 70 nM
IC50 [2]: 23 nM

IC50 [1]: 340 nM
IC50 [3]: 110 nM
SMILES: Cc1cccc(CC2CCc3nc(N)nc(N)c3C2)c1 (stereo not given)
IC50 [2]: 36 nM

IC50 [1]: 290 nM
IC50 [3]: 180 nM
SMILES: Nc1nc(N)c2c(n1)CCC(Cc1ccccc1)C2 (stereo not given)
IC50 [4]: 250 nM
Ratio [5]: 7.8
IC50 [2]: 32 nM

IC50 [1]: 450 nM
IC50 [3]: 120 nM
SMILES: COc1ccccc1CC1CCc2nc(N)nc(N)c2C1 (stereo not given)
IC50 [2]: 14 nM

IC50 [1]: 440 nM
IC50 [3]: 77 nM
SMILES: COc1ccc(CC2CCc3nc(N)nc(N)c3C2)cc1 (stereo not given)
IC50 [2]: 50 nM

IC50 [1]: 400 nM
IC50 [3]: 190 nM
SMILES: Nc1nc(N)c2c(n1)CCC(Cc1cccc(C(F)(F)F)c1)C2 (stereo not given)
IC50 [2]: 140 nM

IC50 [1]: 880 nM
IC50 [3]: 270 nM
SMILES: Nc1nc(N)c2c(n1)CCC(CC1CCCO1)C2 (stereo not given)
IC50 [2]: 40 nM

IC50 [6]: 60 nM
IC50 [8]: 270 nM
IC50 [9]: 780 nM
IC50 [10]: 11000 nM
IC50 [11]: 1600 nM
IC50 [13]: 50 nM
IC50 [16]: 60 nM
IC50 [28]: 9800 nM
IC50 [19]: 190 nM
IC50 [30]: 80 nM
IC50 [24]: 22000 nM
IC50 [1]: 91 nM
IC50 [3]: 38 nM
SMILES: COc1cc(CC2CCc3nc(N)nc(N)c3C2)cc(OC)c1OC (stereo not given)
IC50 [7]: 21000 nM
IC50 [12]: 710 nM
IC50 [4]: 210 nM
IC50 [14]: 190 nM
IC50 [15]: 1300 nM
IC50 [20]: 190 nM
IC50 [22]: 250 nM
IC50 [23]: 36000 nM
IC50 [29]: 1000 nM
IC50 [25]: 27000 nM
Ratio [5]: 8.8
IC50 [27]: 80 nM
IC50 [2]: 24 nM

IC50 [6]: 60 nM
IC50 [9]: < 10 nM
IC50 [10]: 330 nM
IC50 [11]: 10000 nM
IC50 [13]: < 10 nM
IC50 [16]: < 10 nM
IC50 [17]: 31000 nM
IC50 [28]: 15000 nM
IC50 [18]: 21000 nM
IC50 [19]: 35 nM
IC50 [21]: 320 nM
IC50 [24]: 20000 nM
IC50 [1]: 57 nM
IC50 [3]: 34 nM
SMILES: COc1ccc(OC)c(CC2CCc3nc(N)nc(N)c3C2)c1 (stereo not given)
IC50 [7]: 10000 nM
IC50 [12]: 16000 nM
IC50 [15]: 2700 nM
IC50 [23]: 15000 nM
IC50 [29]: 430 nM
IC50 [25]: 8400 nM
IC50 [26]: < 10 nM
IC50 [27]: 60 nM
IC50 [2]: 21 nM

IC50 [1]: 580 nM
IC50 [3]: 170 nM
SMILES: Nc1nc(N)c2c(n1)CCC(Cc1ccc(OC(F)(F)F)cc1)C2 (stereo not given)
IC50 [2]: 73 nM

IC50 [1]: 250 nM
IC50 [3]: 110 nM
SMILES: Cc1ccccc1CC1CCc2nc(N)nc(N)c2C1 (stereo not given)
IC50 [2]: 23 nM
